Where a name gives a salt, the structure may show the parent alone.
Experiments:
human 5-HT2A receptor = target: T1, human 5-HT2A receptor (Homo sapiens, UniProt P28223); assay: 5-HT2A FLIPR assay (calcium response to DOI) in CHO cells; format: cell-based; conditions: for IC50: antagonist inhibition of 3 nM DOI stimulation, CHO cells, FLIPR; for inhibition at 1 µM: CHO, read-out: 5-HT2A Percentage inhibition at 1 μM
T1 construct: expressed in transfected cells; host or cells: CHO
Procedure: Cells are washed with PBS without Ca^2+ and 3 mL Trypsin is added to dissociate cells. After 3 minute incubation, 7 mL Trypsin Neutralizing Solution is added. Cells are then aspirated from flask and mixed in a 50 mL conical tube. 10 μL sample is used to count cells on a hemacytometer. […] Two 96-well drug plates are prepared for each cell plate. Plate 1 will contain compounds to be tested and plate 2 will contain the agonist DOI (3 nM) to activate a calcium response. Specific details of compound preparation are listed below. […] Outside wells are not used due to an edge effect seen in these cells. The reference compounds DOI and 5-HT are used as standard 5HT agonists. […] Standards for plate one are Vehicle, 1 μM DOI, and 3 nM MDL. […] On the day of the assay, test compound solutions of appropriate concentrations are diluted in assay buffer as described for single concentration testing. This procedure is followed to ensure that the solvent concentration is consistent across dilutions. The typical concentration testing range of compounds is 10^−10—10^−5 M in half log or full log increments. A 10 μM DOI stock is diluted to 60 nM and added to the respective wells. The pipeting station of the FLIPR will make an additional 20-fold dilution for a final concentration of 3 nM. Standards for this plate include Vehicle and 3 nM DOI. Contents of dye vial (Molecular Devices #R8090) are dissolved in 100 mL of 1×HBSS supplemented with 20 mM HEPES. Aliquots can be frozen at −20° C. for up to one week for future use. On the day of assay, dye is thawed and diluted to half concentration. […] Cells are allowed to adhere for 24 hours in 96-well plates. […] Cell, compound and DOI plates are loaded into the FLIPR machine. The baseline fluorescence level is read once every second for 1 minute. Compound (10 μL) is transferred from the compound plate to the cells and the fluorescence level recorded every 6 seconds for 2 minutes to determine any agonist activity. Baseline fluorescence is recorded again every second for 10 seconds. For antagonist determination, 10 μL of 3 nM DOI is transferred from the DOI plate to the cells and the fluorescence level recorded every 6 seconds for 5 minutes. The pipetting unit of the FLIPR machine completes all transfers. […] The data are log transformed prior to analysis.

human hNET = target: T2, human hNET (Homo sapiens, UniProt P23975); assay: Norepinephrine (NE) uptake assay in MDCK-Net6 cells; format: cell-based; conditions: [3H]NE uptake; for EC50: MDCK-Net6 cells stably transfected with hNET; for inhibition at 1 µM: MDCK-Net6 cells, read-out: hNET Percentage inhibition at 1 μM
T2 construct: expressed in transfected cells; host or cells: MDCK (MDCK-Net6)
T2 sequence (P23975 whole entry): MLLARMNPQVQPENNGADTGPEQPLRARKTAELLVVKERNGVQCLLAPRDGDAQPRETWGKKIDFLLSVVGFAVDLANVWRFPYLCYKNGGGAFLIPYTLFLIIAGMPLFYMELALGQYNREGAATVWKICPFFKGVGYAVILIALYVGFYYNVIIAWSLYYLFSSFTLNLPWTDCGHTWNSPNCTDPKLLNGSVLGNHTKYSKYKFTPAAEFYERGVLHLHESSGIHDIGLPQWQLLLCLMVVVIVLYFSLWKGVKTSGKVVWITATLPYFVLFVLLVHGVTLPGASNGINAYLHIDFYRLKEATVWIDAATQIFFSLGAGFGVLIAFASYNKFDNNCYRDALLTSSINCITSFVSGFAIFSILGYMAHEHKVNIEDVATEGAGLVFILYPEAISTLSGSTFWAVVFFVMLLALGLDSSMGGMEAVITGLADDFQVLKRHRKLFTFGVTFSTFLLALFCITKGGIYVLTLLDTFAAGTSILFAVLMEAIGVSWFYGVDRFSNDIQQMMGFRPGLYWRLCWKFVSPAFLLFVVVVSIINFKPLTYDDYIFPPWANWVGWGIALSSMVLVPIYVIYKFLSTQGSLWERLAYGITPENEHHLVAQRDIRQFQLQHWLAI
Procedure: Cells were plated at 300,000/T75 flask and cells were split twice weekly. […] Cells were plated at 250,000 cells/T75 flask and split twice weekly.
Norepinephrine (NE) Uptake Assay
On day 1, cells were plated at 3,000 cells/well in growth medium and maintained in a cell incubator (37° C., 5% CO2). On day 2, growth medium was replaced with 200 μl of assay buffer (25 mM HEPES; 120 mM NaCl; 5 mM KCl; 2.5 mM CaCl2; 1.2 mM MgSO4; 2 mg/ml glucose (pH 7.4, 37° C.)) containing 0.2 mg/ml ascorbic acid and 10 μM pargyline. Plates containing cells with 200 μl of assay buffer were equilibrated for 10 minutes at 37° C. prior to addition of compounds. A stock solution of desipramine was prepared in DMSO (10 mM) and delivered to triplicate wells containing cells for a final test concentration of 1 μM. Data from these wells were used to define non-specific NE uptake (minimum NE uptake). Test compounds were prepared in DMSO (10 mM) and diluted in assay buffer according to test range (1 to 10,000 nM). Twenty-five microliters of assay buffer (maximum NE uptake) or test compound were added directly to triplicate wells containing cells in 200 μl of assay buffer. The cells in assay buffer with test compounds were incubated for 20 minutes at 37° C. […] The reaction was terminated by decanting the supernatant from the plate. The plates containing cells were washed twice with 200 μl assay buffer (37° C.) to remove free radioligand. The plates were then inverted, left to dry for 2 minutes, then reinverted and air-dried for an additional 10 minutes. […] After cell lysis, 75 μl of scintillation cocktail was added to each well and the plates were sealed with film tape. The plates were returned to the shake table and vigorously shaken for a minimum of 10 minutes to ensure adequate partitioning of organic and aqueous solutions. The plates were counted in a Wallac Microbeta counter (PerkinElmer) to collect the raw cpm data.
For each experiment, a data stream of cpm values collected from the Wallac Microbeta counter was downloaded to a Microsoft Excel statistical application program. Calculations of EC50 values were made using the transformed-both-sides logistic dose response program written by Wyeth Biometrics Department.

T1 sequence (P28223 whole entry): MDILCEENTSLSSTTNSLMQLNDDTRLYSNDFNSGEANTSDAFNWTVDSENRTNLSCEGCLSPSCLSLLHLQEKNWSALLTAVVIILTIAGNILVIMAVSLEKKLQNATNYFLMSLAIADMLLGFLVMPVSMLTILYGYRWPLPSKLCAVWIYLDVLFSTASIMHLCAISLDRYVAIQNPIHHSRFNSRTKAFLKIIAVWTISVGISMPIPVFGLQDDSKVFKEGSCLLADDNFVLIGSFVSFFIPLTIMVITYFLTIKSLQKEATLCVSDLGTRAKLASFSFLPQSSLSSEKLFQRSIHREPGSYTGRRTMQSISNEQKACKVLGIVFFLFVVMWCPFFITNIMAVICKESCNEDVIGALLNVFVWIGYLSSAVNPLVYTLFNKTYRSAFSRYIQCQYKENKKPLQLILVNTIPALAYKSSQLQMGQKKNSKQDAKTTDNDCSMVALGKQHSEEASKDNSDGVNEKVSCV

IC50 (human 5-HT2A receptor)	EC50 (human hNET)	SMILES	inhibition at 1 µM (human 5-HT2A receptor)	inhibition at 1 µM (human hNET)
0.281 µM	0.032 µM	CNC[C@@H](O)[C@H](c1ccccc1)n1ccc2cc(OCc3ccc(OC)cc3)ccc21 [Example 7, (1S,2R)-1-{5-[(4-methoxybenzyl)oxy]-1H-indol-1-yl}-3-(methylamino)-1-phenylpropan-2-ol hydrochloride]	–	–
0.658 µM	0.147 µM	CNC[C@@H](O)[C@H](c1ccccc1)n1ccc2cc(OCc3ccccc3Cl)ccc21 [Example 8, (1S,2R)-1-{5-[(2-chlorobenzyl)oxy]-1H-indol-1-yl}-3-(methylamino)-1-phenylpropan-2-ol hydrochloride]	–	–
0.712 µM	0.067 µM	CNC[C@@H](O)[C@H](c1ccccc1)n1ccc2cc(OCc3ccc(Cl)cc3)ccc21 [Example 10, (1S,2R)-1-{5-[(4-chlorobenzyl)oxy]-1H-indol-1-yl}-3-(methylamino)-1-phenylpropan-2-ol hydrochloride]	–	–
1.26 µM	0.052 µM	CNC[C@@H](O)[C@H](c1ccccc1)n1ccc2cc(OCc3ccccc3F)ccc21 [Example 11, (1S,2R)-1-{5-[(2-fluorobenzyl)oxy]-1H-indol-1-yl}-3-(methylamino)-1-phenylpropan-2-ol hydrochloride]	–	–
0.468 µM	0.031 µM	CNC[C@@H](O)[C@H](c1ccccc1)n1ccc2cc(OCc3ccc(F)cc3)ccc21 [Example 13, (1S,2R)-1-{5-[(4-fluorobenzyl)oxy]-1H-indol-1-yl}-3-(methylamino)-1-phenylpropan-2-ol hydrochloride]	–	–
0.442 µM	0.109 µM	CNC[C@@H](O)[C@H](c1ccccc1)n1ccc2cc(OCc3ccccc3C)ccc21 [Example 14, (1S,2R)-3-(methylamino)-1-{5-[(2-methylbenzyl)oxy]-1H-indol-1-yl}-1-phenylpropan-2-ol hydrochloride]	–	–
0.809 µM	0.088 µM	CNC[C@@H](O)[C@H](c1ccccc1)n1ccc2cc(OCc3cccc(C)c3)ccc21 [Example 15, (1S,2R)-3-(methylamino)-1-{5-[(3-methylbenzyl)oxy]-1H-indol-1-yl}-1-phenylpropan-2-ol hydrochloride]	–	–
4.12 µM	0.037 µM	CNC[C@@H](O)[C@H](c1ccccc1)n1ccc2cc(OCc3ccc(C)cc3)ccc21 [Example 16, (1S,2R)-3-(methylamino)-1-{5-[(4-methylbenzyl)oxy]-1H-indol-1-yl}-1-phenylpropan-2-ol hydrochloride]	–	–
2.6 µM	–	CNC[C@@H](O)[C@H](c1ccccc1)n1ccc2cccc(-c3ccccc3)c21 [Example 23, (1S,2R)-3-(methylamino)-1-phenyl-1-(7-phenyl-1H-indol-1-yl)propan-2-ol hydrochloride]	–	48%
0.213 µM	0.448 µM	CNC[C@@H](O)[C@H](c1ccccc1)N1C(=O)C2(CCCCC2)c2ccc(Cl)cc21 [Example 28, 6′-Chloro-1′-[(1S,2R)-2-hydroxy-3-(methylamino)-1-phenylpropyl]spiro[cyclohexane-1,3′-indol]-2′(1′H)-one hydrochloride]	–	–
0.283 µM	0.041 µM	CNC[C@@H](O)[C@H](c1ccccc1)N1C(=O)C2(CCCCC2)c2cc(F)ccc21 [Example 30, 5′-fluoro-1′-[(1S,2R)-2-hydroxy-3-(methylamino)-1-phenylpropyl]spiro[cyclohexane-1,3′-indol]-2′(1′H)-one hydrochloride]	–	–

Second part, the compound before the results:

SMILES	IC50 (human 5-HT2A receptor)	EC50 (human hNET)	inhibition at 1 µM (human 5-HT2A receptor)	inhibition at 1 µM (human hNET)
CNC[C@@H](O)[C@H](c1ccccc1)n1ccc2cc(OCc3cccc(Cl)c3)ccc21 [Example 9, (1S,2R)-1-{5-[(3-chlorobenzyl)oxy]-1H-indol-1-yl}-3-(methylamino)-1-phenylpropan-2-ol hydrochloride]	–	0.089 µM	39%	–
CNC[C@@H](O)[C@H](c1ccccc1)n1ccc2cc(OCc3cccc(F)c3)ccc21 [Example 12, (1S,2R)-1-{5-[(3-fluorobenzyl)oxy]-1H-indol-1-yl}-3-(methylamino)-1-phenylpropan-2-ol hydrochloride]	0.979 µM	0.036 µM	–	–
CNC[C@@H](O)[C@H](c1ccccc1)n1ccc2cc(OCCc3ccccc3)ccc21 [Example 18, (1S,2R)-3-(methylamino)-1-phenyl-1-[5-(2-phenylethoxy)-1H-indol-1-yl]propan-2-ol hydrochloride]	1.2 µM	0.219 µM	–	–
CNC[C@@H](O)[C@H](c1ccccc1)n1ccc2cc(Oc3ccccc3)ccc21 [Example 19, (1S,2R)-3-(methylamino)-1-[5-(phenoxy)-1H-indol-1-yl]-1-phenylpropan-2-ol hydrochloride]	–	–	39%	27%
CNC[C@@H](O)[C@H](c1ccccc1)n1ccc2c(Oc3ccccc3)cccc21 [Example 20, (1S,2R)-3-(methylamino)-1-[4-(phenoxy)-1H-indol-1-yl]-1-phenylpropan-2-ol hydrochloride]	–	0.227 µM	30%	–
CNC[C@@H](O)[C@H](c1ccccc1)n1ccc2c(-c3ccccc3)cccc21 [Example 21, (1S,2R)-3-(methylamino)-1-phenyl-1-(4-phenyl-1H-indol-1-yl)propan-2-ol hydrochloride]	–	–	27%	56%
CNC[C@@H](O)[C@H](c1ccccc1)n1ccc2ccc(-c3ccccc3)cc21 [Example 22, (1S,2R)-3-(methylamino)-1-phenyl-1-(6-phenyl-1H-indol-1-yl)propan-2-ol hydrochloride]	–	0.035 µM	16%	–
CNC[C@@H](O)[C@H](c1cccc(F)c1)n1ccc2cc(OCc3ccccc3)ccc21 [Example 24, (1S,2R)-1-[5-(benzyloxy)-1H-indol-1-yl]-1-(3-fluorophenyl)-3-(methylamino)propan-2-ol hydrochloride]	–	0.036 µM	20%	–
CNC[C@@H](O)[C@H](c1ccccc1)N1CCc2cc(OCc3ccccc3)ccc21 [Example 26, (1S,2R)-1-[5-(benzyloxy)-2,3-dihydro-1H-indol-1-yl]-3-(methylamino)-1-phenylpropan-2-ol hydrochloride]	–	0.045 µM	23%	–
CNC[C@@H](O)[C@H](c1ccccc1)N1C(=O)C2(CCCCC2)c2cc(Cl)ccc21 [Example 27, 5′-chloro-1′-[(1S,2R)-2-hydroxy-3-(methylamino)-1-phenylpropyl]spiro[cyclohexane-1,3′-indol]-2′(1′H)-one hydrochloride]	0.423 µM	0.089 µM	–	–
CNC[C@@H](O)[C@H](c1ccccc1)N1C(=O)C2(CCCCC2)c2ccc(F)cc21 [Example 29, 6′-fluoro-1′-[(1S,2R)-2-hydroxy-3-(methylamino)-1-phenylpropyl]spiro[cyclohexane-1,3′-indol]-2′(1′H)-one hydrochloride]	0.106 µM	0.043 µM	–	–

From US20070072897A1, “Phenylaminopropanol derivatives and methods of their use” (Wyeth, priority 2005, published 2007)
